Measurements from US20230192705A1, “SHP2 INHIBITORS, COMPOSITIONS AND USES THEREOF” (Betta Pharmaceuticals Co., Ltd, priority 2020, published 2023).

Assays:
[1] = test system: lung cancer NCI-H358 cell; experiment: Cell proliferation assay (CellTiter-Glo), NCI-H358; format: cell-based; settings: Homo sapiens; NCI-H358, 96 hrs, CTG; class symbols; read-out: Compound on NCI-H358 cell IC50
Outline: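 NCI-H358 cells were seeded at 2000 per well on ultra-low-attachment plates and exposed to compound (1000 nM down to 0.1524 nM, threefold steps) for 96 hrs at 37 °C. Viable cells were measured as ATP by CellTiter-Glo luminescence. Inhibition was computed against 0 nM and medium blanks, and IC50 from variable-slope fits.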

[2] = In vitro metabolic stability in human liver microsome; format: in vitro ADME; settings: human liver microsomes
Procedure: (§1) 1900 mg MgCl2 was dissolved into a final volume of 400 mL ultra-pure water.
(§2) 17.42 g K2HPO4 and 13.65 g KH2PO4 were dissolved into a final volume of 1000 mL ultra-pure water, respectively. K2HPO4 and KH2PO4 were mixed to prepare 100 mM potassium phosphate (PBS) buffer. The pH value of the final solution was adjusted to pH 7.30±0.10.
(§3) Cold ACN (including 10 ng/mL Labetalol and 10 ng/mL Glibenclamid) was stored at 4° C.
(§4) Working Solution Preparation:
(§5) Verapamil (positive control) and test compound stock solution were diluted into a concentration of 50 μM and 200 μM respectively, using MeOH/ACN/H2O solution (1:1:2, v/v/v).
(§6) 1) 40 μL MgCl2 and 306 μL PBS were added to 96 plate wells (blank, compound wells, compounds without NADPH wells)
(§7) 2) 4 μL compound working solution was added to above wells (blank: 4 μL PBS buffer) (Note: the volume of DMSO in final incubation system ≤0.5%)
(§8) 3) 10 μL microsomes (20 mg/mL) was added in each well. The mixture was warmed up for 10 minutes at 37.0° C.
(§9) 4) 40 μL 10 mM NADPH working solution was added to start reaction. The total volume was 400 μL.
(§10) 5) Aliquots of 50 μL samples were taken from the reaction solution at 0, 5, 15, 45 min. The reaction solutions were stopped by the addition of 400 μL stop solution.
(§11) 6) The sampling plates were shaked for approx. 5 min.
(§12) 7) Samples were centrifuged at 3200 rcf for 10 min. then transferred 50 μL to a new plate dilute with 200 μL H2O for LC/MS/MS analysis.
(§13) Use equation of first order kinetics to calculate t1/2 and CL: […]
(§14) Where k represents elimination constant, which is calculated from a log linear plot of % Remaining versus time. t1/2 represents the half-life. Cprotein is the concentration of liver microsomes.

[3] = In vitro metabolic stability in rat liver microsome; format: in vitro ADME; settings: rat liver microsomes
Procedure: as §1, §2, §3, §4, §5, §6, §7, §8, §9, §10, §11, §12, §13, §14

[4] = test system: leukemia MV-4-11 cell; experiment: Cell proliferation assay (CellTiter-Glo), MV-4-11; format: cell-based; settings: Homo sapiens, MV4-11; MV-4-11, 120 hrs, CTG; class symbols; read-out: Compound on MV-4-11 cell IC50

| IC50 [1] [nM] | CLint Human [2] [μL/min/mg proteins] | CLint Rat [3] [μL/min/mg proteins] | IC50 [4] [nM] | Structure (SMILES) |
| --- | --- | --- | --- | --- |
| 20 to 60 | 6.2 | 12.4 | 20 to 60 | N[C@@H]1c2ccccc2CC12CCN(c1nc3[nH]nc(C4(c5ccc(C(F)(F)F)cc5)CC4)c3c(=O)[nH]1)CC2 [Example 228, (S)-6-(1-amino-1,3-dihydrospiro[indene-2,4′-piperidin]-1′-yl)-3-(1-(4-(trifluoromethyl)phenyl)cyclo-propyl)-1,5-dihydro-4H-pyrazolo[3,4-d]pyrimidin-4-one] |
| ≤ 20 | 10.6 | 17.4 | ≤ 20 | N[C@@H]1c2ccccc2CC12CCN(c1nc3[nH]nc(C4(c5ccccc5)CC4)c3c(=O)[nH]1)CC2 [Example 33] |
